Data as given in paper PMC4303209, “A novel phosphatidylinositol 3-kinase (PI3K) inhibitor directs a potent FOXO-dependent, p53-independent cell cycle arrest phenotype characterized by the differential induction of a subset of FOXO-regulated genes” (Breast Cancer Research : BCR, 2014).

Tested on: MCF-7 breast cancer cells
Test: Microarray gene expression analysis (Agilent whole human genome 4 x 44K; compound vs DMSO, LIMMA log2 fold change)
Format: cell-based

## Cn1ncc2c(N3CCOCC3)nc(-c3cccc(O)c3)nc21 [ETP-45658]
Gene SENP2 (Gene 59343), cell cycle genes
  log2FC SENP2: -0.00743
Gene SERINC3 (10955), apoptosis genes
  SERINC3 log2FC: 0.046
Gene SERPINE1 (5054), apoptosis genes
  SERPINE1 log2FC: -0.036
Gene SESN1 (Gene 27244), cell cycle genes
  log2FC: 0.237
Gene SHF (90525), apoptosis genes
  SHF log2FC: 0.026
Gene SKIL (6498), apoptosis genes
  SKIL log2FC: 0.046
Gene SKIL (Gene 6498), cell cycle genes
  log2FC SKIL: 0.046
Gene SLBP (Gene 7884), cell cycle genes
  log2FC: 0.333
Gene SLC25A6 (293), apoptosis genes
  SLC25A6 log2FC: 0.025
Gene SLC26A8 (Gene 116369), cell cycle genes
  log2FC SLC26A8: -0.003
Gene SLC40A1 (30061), apoptosis genes
  SLC40A1 log2FC: -0.005
Gene SMAD1 (4086), apoptosis genes
  SMAD1 log2FC: -0.074
Gene SMNDC1 (10285), apoptosis genes
  SMNDC1 log2FC: -0.102
Gene SOD1 (6647), apoptosis genes
  SOD1 log2FC: 0.073
Gene SOS1 (6654), apoptosis genes
  SOS1 log2FC: 0.035
Gene SOX8 (30812), apoptosis genes
  SOX8 log2FC: -0.391
Gene SPO11 (Gene 23626), cell cycle genes
  log2FC SPO11: 0.008
Gene SPTAN1 (6709), apoptosis genes
  SPTAN1 log2FC: 0.094
Gene SRC (Gene 6714), cell cycle genes
  log2FC: -0.316
Gene STAG1 (Gene 10274), cell cycle genes
  log2FC: 0.343
Gene STK3 (6788), apoptosis genes
  STK3 log2FC: 0.083
Gene SULF1 (23213), apoptosis genes
  SULF1 log2FC: -0.096
Gene SUPT5H (Gene 6829), cell cycle genes
  log2FC: -0.331
Gene SUV39H2 (Gene 79723), cell cycle genes
  log2FC: -0.388
Gene SYCP2 (10388), apoptosis genes
  SYCP2 log2FC: 0.016
Gene SYCP2 (Gene 10388), cell cycle genes
  log2FC SYCP2: 0.016
Gene SYCP3 (Gene 50511), cell cycle genes
  log2FC SYCP3: 0.00367
Gene TAF2 (Gene 6873), cell cycle genes
  log2FC: 0.361
Gene TAF6 (Gene 6878), cell cycle genes
  log2FC TAF6: 0.055
Gene TAOK2 (Gene 9344), cell cycle genes
  log2FC: -0.736
Gene TEK (7010), apoptosis genes
  TEK log2FC: -0.008
Gene TEX14 (Gene 56155), cell cycle genes
  log2FC: 0.240
Gene TEX15 (Gene 56154), cell cycle genes
  log2FC: 0.238
Gene TFAP2D (83741), apoptosis genes
  TFAP2D log2FC: -0.029
Gene TGFA (Gene 7039), cell cycle genes
  log2FC: -0.305
Gene TGFB2 (7042), apoptosis genes
  TGFB2 log2FC: -0.011
Gene TGFB2 (Gene 7042), cell cycle genes
  log2FC TGFB2: -0.011
Gene THEM4 (117145), apoptosis genes
  THEM4 log2FC: -0.054
Gene THOC5 (Gene 8563), cell cycle genes
  log2FC THOC5: 0.010
Gene TMBIM4 (51643), apoptosis genes
  TMBIM4 log2FC: 0.025
Gene TMEM67 (Gene 91147), cell cycle genes
  log2FC: 0.184
Gene TMEM102 (284114), apoptosis genes
  TMEM102 log2FC: -0.101
Gene TNFRSF1B (7133), apoptosis genes
  TNFRSF1B log2FC: -0.022
Gene TNFRSF8 (943), apoptosis genes
  TNFRSF8 log2FC: 0.055
Gene TNFRSF10C (8794), apoptosis genes
  TNFRSF10C log2FC: 0.00147
Gene TNFSF8 (944), apoptosis genes
  TNFSF8 log2FC: -0.043
Gene TNFSF9 (8744), apoptosis genes
  TNFSF9 log2FC: 0.017
Gene TNFSF10 (8743), apoptosis genes
  TNFSF10 log2FC: -0.021
Gene TNFSF12 (8742), apoptosis genes
  TNFSF12 log2FC: 0.112
Gene TNFSF14 (8740), apoptosis genes
  TNFSF14 log2FC: 0.017
Gene TNFSF15 (9966), apoptosis genes
  TNFSF15 log2FC: 0.027
Gene TNFSF18 (8995), apoptosis genes
  TNFSF18 log2FC: 0.00185
Gene TP73 (Gene 7161), cell cycle genes
  log2FC: -0.503
Gene TPD52L1 (Gene 7164), cell cycle genes
  log2FC: 0.379
Gene TPX2 (22974), apoptosis genes
  TPX2 log2FC: 0.049
Gene TRAF2 (7186), apoptosis genes
  TRAF2 log2FC: -0.056
Gene TRAF3IP2 (10758), apoptosis genes
  TRAF3IP2 log2FC: -0.070
Gene TRIP13 (Gene 9319), cell cycle genes
  log2FC TRIP13: 0.007
Gene TUBGCP6 (Gene 85378), cell cycle genes
  log2FC: -0.470
Gene TXNDC5 (81567), apoptosis genes
  TXNDC5 log2FC: 0.070
Gene TYMS (Gene 7298), cell cycle genes
  log2FC TYMS: -0.0037
Gene UBD (10537), apoptosis genes
  UBD log2FC: -0.00756
Gene UBE2V2 (7336), apoptosis genes
  UBE2V2 log2FC: -0.109
Gene UNC13B (10497), apoptosis genes
  UNC13B log2FC: 0.009
Gene VDAC2 (7417), apoptosis genes
  VDAC2 log2FC: 0.033
Gene VIM (7431), apoptosis genes
  VIM log2FC: 0.051
Gene VIP (7432), apoptosis genes
  VIP log2FC: -0.146
Gene VNN1 (8876), apoptosis genes
  VNN1 log2FC: 0.157
Gene VRK1 (Gene 7443), cell cycle genes
  log2FC: 0.426
Gene WNK3 (65267), apoptosis genes
  WNK3 log2FC: 0.012
Gene WTAP (Gene 9589), cell cycle genes
  log2FC: -0.387
Gene YY1AP1 (Gene 55249), cell cycle genes
  log2FC: 0.220
Gene ZBTB16 (7704), apoptosis genes
  ZBTB16 log2FC: 0.144
Gene ZC3H12D (Gene 85313), cell cycle genes
  log2FC ZC3H12D: -0.006
Gene ZC3HC1 (Gene 51530), cell cycle genes
  log2FC: 0.230
Gene ZNF205 (7755), apoptosis genes
  ZNF205 log2FC: -0.229
Gene ZNF443 (10224), apoptosis genes
  ZNF443 log2FC: -0.028
Gene ZNF503 (Gene 84858), cell cycle genes
  log2FC: -0.229
Gene ZNF622 (90441), apoptosis genes
  ZNF622 log2FC: 0.041
